A word on the EC50: it is the concentration that produces a half-maximal response. As usually defined, the CC50 is the concentration giving 50% cytotoxicity. Low values mean greater toxicity to the cells, high ones lower toxicity to the cells.

Data set [1] relates to downmodulation of MHC-I molecules expressed on the surface of HIV infected SupT1 cells. In words: cells. Conditions: Human immunodeficiency virus 1, SUP-T1, read-out: EC50 for inhibition of MHC-I downmodulation utilizing the R1 parameter.
Data set [2] can be described thus: in vitro. Conditions: human, uninfected SupT1 cells.

For the compound `Cc1cccc(OCC(=O)N(C)c2nc3c(s2)CCCC3)c1F` [Compound 113, 2-(2-Fluoro-3-methylphenoxy)-N-methyl-N-(4,5,6,7-tetrahydrobenzo[d]thiazol-2-yl)acetamide], the half-maximal effective concentration (EC50) in data set [1] is 550 nM. Besides, the CC50 at 48 h in data set [2] is > 125000 nM.

Take `CN(C(=O)COc1cccc2cc[nH]c12)c1nc2c(s1)CCCC2` [Compound 128, 2-((1H-Indol-7-yl)oxy)-N-methyl-N-(4,5,6,7-tetrahydrobenzo[d]thiazol-2-yl) acetamide]: in data set [1], the EC50 was > 25000 nM. The CC50 at 48 h in data set [2] was > 125000 nM.

As for `CC1(C)Cc2cccc(OCC(=O)Nc3nc4ccccc4s3)c2O1` [Compound 143, N-(benzo[d]thiazol-2-yl)-2-((2,2-dimethyl-2,3-dihydrobenzofuran-7-yl)oxy)acetamide], in data set [1], the EC50 came to 410 nM. Moreover, the CC50 at 48 h in data set [2] was > 100000 nM.

As for `COc1ccc(C)cc1OCC(=O)N(C)c1nc2c(s1)CCCC2` [Compound 122, 2-(2-Methoxy-5-methylphenoxy)-N-methyl-N-(4,5,6,7-tetrahydrobenzo[d]thiazol-2-yl)acetamide], in data set [1], the 50% effective concentration (EC50) turned out to be 5000 nM. In addition, the CC50 at 48 h in data set [2] was > 125000 nM.

Turning to `COc1cccc2sc(NC(=O)COc3cccc4c3OC(C)(C)C4)nc12` [Compound 146, 2-((2,2-Dimethyl-2,3-dihydrobenzofuran-7-yl)oxy)-N-(4-methoxybenzo[d]thiazol-2-yl)acetamide], the EC50 in data set [1] came to 1690 nM. Besides, in data set [2], the CC50 at 48 h is > 10000 nM.

`Cc1cccc(CN(C(=O)COc2cccc3c2OC(C)(C)C3)c2nc3c(s2)CCCC3)n1` [Compound 39, 2-((2,2-Dimethyl-2,3-dihydrobenzofuran-7-yl)oxy)-N-((6-methylpyridin-2-yl)methyl)-N-(4,5,6,7-tetrahydrobenzo[d]thiazol-2-yl)acetamide]: the EC50 in data set [1] came out at 20 nM. Moreover, in data set [2], the CC50 at 48 h was > 100000 nM.

On to `Cc1cccc(OCC(=O)N(C)c2nc3c(s2)CCCC3)c1Br` [Compound 117, 2-(2-Bromo-3-methylphenoxy)-N-methyl-N-(4,5,6,7-tetrahydrobenzo[d]thiazol-2-yl)acetamide], for which the EC50 in data set [1] was 950 nM. Also, the CC50 at 48 h in data set [2] is > 125000 nM.

For `CN(C(=O)COc1cccc2c1OCCO2)c1nc2c(s1)CCCC2` [Compound 126, 2-((2,3-Dihydrobenzo[b][1,4]dioxin-5-yl)oxy)-N-methyl-N-(4,5,6,7-tetrahydrobenzo[d]thiazol-2-yl)acetamide], the EC50 in data set [1] was found to be 800 nM. Also, the half-maximal cytotoxic concentration (CC50) at 48 h in data set [2] is > 125000 nM.

In the case of `CC1(C)Cc2cccc(OCC(=O)Nc3nc4c(F)cccc4s3)c2O1` [Compound 147, 2-((2,2-Dimethyl-2,3-dihydrobenzofuran-7-yl)oxy)-N-(4-fluorobenzo[d]thiazol-2-yl)acetamide], in data set [1], the EC50 is 90 nM. Besides, the CC50 at 48 h in data set [2] is > 90000 nM.

Take `Cn1ccnc1CN(C(=O)COc1cccc2c1OC(C)(C)C2)c1nc2c(s1)CCCC2` [Compound 46, 2-((2,2-Dimethyl-2,3-dihydrobenzofuran-7-yl)oxy)-N-((1-methyl-1H-imidazol-2-yl)methyl)-N-(4,5,6,7-tetrahydrobenzo[d]thiazol-2-yl)acetamide]: the EC50 in data set [1] came to 59 nM. The CC50 at 48 h in data set [2] was > 125000 nM.

With `Cc1cnc(NC(=O)COc2cccc3c2OC(C)(C)C3)s1` [Compound 182, 2-((2,2-Dimethyl-2,3-dihydrobenzofuran-7-yl)oxy)-N-(5-methylthiazol-2-yl) acetamide], the 50% effective concentration (EC50) in data set [1] was found to be 370 nM. In data set [2], this compound yielded a half-maximal cytotoxic concentration (CC50) at 48 h of 69000 nM.

On to `CC1(C)Cc2cccc(OCC(=O)Nc3nc(C(F)(F)F)cs3)c2O1` [Compound 21, 2-((2,2-dimethyl-2,3-dihydrobenzofuran-7-yl)oxy)-N-(4-(trifluoromethyl)thiazol-2-yl)acetamide], for which the EC50 in data set [1] came out at 560 nM. In addition, the CC50 at 48 h in data set [2] was > 100000 nM.

Turning to `C=Cc1ccc(N(C)C(=O)COc2cccc3c2OC(C)(C)C3)nn1` [Compound 82, 2-((2,2-Dimethyl-2,3-dihydrobenzofuran-7-yl)oxy)-N-methyl-N-(6-vinylpyridazin-3-yl)acetamide], in data set [1], the EC50 came out at 5900 nM. In addition, the CC50 at 48 h in data set [2] was > 125000 nM.

(Values after patent US20220411419A1, “SMALL MOLECULE MODULATORS OF MHC-I” (RetroVirox, Inc., priority 2018, published 2022).)
